Results on 75 compounds are retold here after a melting point compilation (Tetko et al.).

One may read the melting point as the temperature of the solid-liquid transition. In turn, `O=[N+]([O-])c1ccc2c(c1)c(CO)cn2Cc1ccccc1` had a melting point of 104 to 106 °C. With `CC(C)(C)OC(=O)N1CCN(c2ccc(CO)cn2)CC1`, the melting point was 112 to 115 °C. `Cc1onc(-c2c(F)cccc2Cl)c1C(N)=S` came in with a melting point of 176 °C. For `N#CCS(=O)(=O)c1ccc(Cl)cc1Cl` the value was 118 to 121 °C; for `NC(=O)CCCCC1CCSS1` (stereo not given), 128 °C. `Cl/C(=C\c1ccccc1)c1ccc2c3c(cccc13)CC2`: the melting point worked out at 77 °C. To `O=C(c1ccccc1)c1cnc2ccccn2c1=O` belongs 152 to 153 °C. The compound `Cc1nc(-c2ccccc2)ncc1CO` yielded a melting point of 85 to 86 °C. To `COc1ccc(C2Nn3c(nnc3-c3cccc([N+](=O)[O-])c3)S2)cc1` (stereo not given) belongs 206 °C; to `O=c1[nH]c2ccc(Br)cc2c(=O)o1`, 285 to 290 °C. To `FC(F)OC(F)F` belongs -123 °C. For `O=C(O)CCC(=O)c1ccc(C2CCCCC2)c(Cl)c1` the value was 163 °C; for `NC(=O)Cc1nc(-c2ccccc2)cs1`, 193 to 194 °C. In turn, `O=C(Nc1cccc([N+](=O)[O-])c1)Nc1cccc([N+](=O)[O-])c1` yielded a melting point of 234 °C. To `COc1cccc(C=CC(=O)O)c1` belongs 116 to 119 °C; to `Clc1cc2oc3c(Cl)c(Cl)ccc3c2cc1Cl`, 195 °C; to `Cc1ccc(-n2nc(C)cc2O)cc1`, 132 to 133 °C. To `CCCCOC(=O)CC(=O)OCCCC` belongs -83 °C; to `O=C1C(=Cc2ccccc2)SC(=S)N1CNc1cccc([N+](=O)[O-])c1`, 190 °C.

`COc1cccc(OC)c1Br`: the melting point turned out to be 93 °C.

Regarding `CCNc1nc(NC(C)CC)nc(OC)n1` (stereo not given), the melting point turned out to be 87 °C.

In turn, `Cn1nc(CCl)cc1-c1cccs1` returned a melting point of 41 to 42 °C.

Consider `Cc1nn(C)c(C(=O)O)c1Br`, for which the melting point is 225 to 226 °C. For `O=C(C1=NOC2C(=O)N(c3ccc(Br)cc3)C(=O)C12)c1ccc(Cl)cc1` (stereo not given), the melting point came to 184 °C. Turning to `CCC(C)=NNc1ccc([N+](=O)[O-])cc1[N+](=O)[O-]`, the melting point came out at 117 °C. `COc1cc(O)ccc1Br` gave a melting point of 79 °C.

In the case of `CCC1CN2CCc3c([nH]c4cccc(OC)c34)C2CC1C(=COC)C(=O)OC` (stereo not given), the melting point was found to be 104 °C. For `CC(=O)CCn1cc([N+](=O)[O-])nc1C` the value was 98 to 100 °C; for `COc1cc2c(cc1C)C(C#N)C2` (stereo not given), 67 °C.

Turning to `O=C(Cl)c1scc2c1OCCO2`, the melting point is 75 to 76 °C. To `CN1C2CC(=O)CC1C(O)C2` (stereo not given) belongs 120 to 123 °C; to `CC(c1ccccc1)C(NC(=O)OC(C)(C)C)C(=O)O` (stereo not given), 100 to 105 °C.

`COc1ccc(C(F)(F)F)cc1C(=O)O` had a melting point of 110 °C.

With `Cn1c(=S)sc2ccccc21`, the melting point was 90 °C. For the compound `CC1CCC(C(C)C)C(OC(=O)c2ccc3ccccc3c2)C1` (stereo not given), the melting point came to 76 °C. `CSc1ccc(C(F)(F)F)cc1NN` displayed a melting point of 86 to 88 °C.

In the case of `CC(=O)c1cc2ccccc2oc1=O`, the melting point was 122 °C. Compound `CC(=O)Nc1ccccc1C(=O)CCl` registered a melting point of 112 to 113 °C.

Turning to `CC(C)NCC(O)COc1cccc2c1C=CC2` (stereo not given), the melting point amounted to 88.5 °C. For `CS(=O)(=O)c1ccc(OC(F)(F)F)cc1` the value was 67 °C. To `CC(=O)c1csc(-c2ccc(OC(F)(F)F)cc2)n1` belongs 45.5 to 48 °C. To `O=C(Cl)c1cc2cc(Br)ccc2o1` belongs 106 to 107 °C. Consider `CCCCCCCCCCCO`, for which the melting point was 19 °C. `CN(C)S(=O)(=O)c1cccc(C(=O)c2ccccc2)c1` displayed a melting point of 82 to 84 °C.

The compound `O=C1NC(=S)SC1=Cc1cccc(C=C2SC(=S)NC2=O)c1` yielded a melting point of 316 °C. On to `Clc1ccc2[nH]c(C(Cl)(Cl)Cl)nc2c1`, for which the melting point lay in the range of 223 to 229 °C. As for `O=C(Oc1c(F)c(F)c(F)c(F)c1F)c1cccc(Oc2ccccn2)c1`, the melting point is 60.5 to 61.5 °C.

`O=[N+]([O-])c1ccccc1N1CCCCC1` returned a melting point of 77 to 79 °C. Turning to `CC1(C)C2CCC1(C)C(NC(=O)c1ccccc1)C2NC(=O)c1ccccc1` (stereo not given), the melting point worked out at 148 °C. To `O=Cc1ccc(C=O)c([N+](=O)[O-])c1` belongs 97 °C; to `Cc1ccc(N2CCCC2=O)cc1`, 86 to 88 °C; to `COC1(C)OC(CNc2ccc(S(C)(=O)=O)cc2)C(CNc2ccc(S(C)(=O)=O)cc2)OC1(C)OC` (stereo not given), 194 to 195 °C. `NC(=O)C1=CN(C2OC(COP(=O)(O)OP(=O)(O)OCC3OC(n4cnc5c(N)ncnc54)C(O)C3O)C(O)C2O)C=CC1` (stereo not given) registered a melting point of 141 °C. To `O=C(O)[C@@H]1Cc2ccccc2CN1C(=O)OCc1ccccc1` belongs 137 to 141 °C; to `O=C1CC2C(CC(OC(=O)c3ccccc3)C2CO)O1` (single isomer, unassigned; (-)), 116 to 120 °C; to `CC(Cl)(Cl)C(=O)OCCOc1cc(Cl)c(Cl)cc1Cl`, 49.5 °C. For `CCC(C)(O)CNC1C2CCC(C)(C1O)C2(C)C` (stereo not given) the value was 119 °C. As for `CC1(C)OC(=O)CC1CC(=O)O` (stereo not given), the melting point amounted to 90 °C. For `C/C(=N/NC(N)=S)C(=O)Nc1ccccc1`, the melting point was in the range of 211 to 213 °C. `COC(=O)[C@H](CCC(=O)O)NC(=O)OCc1ccccc1` displayed a melting point of 68 to 70 °C. For `COc1ccc(Oc2ccc(C(F)(F)F)cc2N)cc1` the value was 73 to 75 °C. To `CC(C)(C)OC(=O)N1CC(=O)C1` belongs 51 °C; to `Cc1c2cccc(-c3ccccc3)c2cc2c(-c3ccccc3)cccc12`, 177 °C. For `N#C/C(=C/c1cccc(O)c1)c1nc2ccccc2c(=O)[nH]1` the value was 294 °C; for `CCOC(=O)CCC(NP(=O)(OC)C(C)NC(=O)CCCCN1C(=O)c2ccccc2C1=O)C(=O)OCC` (stereo not given), 79 to 82 °C.

In turn, `C=CC12CN(C)C3C4COC(CC41)C1(C(=O)Nc4ccccc41)C32` (stereo not given) returned a melting point of 178 °C.

Compound `O=C(O)Cc1cccc(I)c1` had a melting point of 130 °C. For `CC(C)C(C)C=CC(C)C1CCC2C3=CC=C4CC(O)CCC4(C)C3=CCC21C` (stereo not given), the melting point amounted to 146 °C. To `CC1(C)C(C=C(Cl)Cl)C1C(=O)OCc1cccc(Oc2ccccc2)c1` (stereo not given) belongs 34.5 °C; to `CCOc1ccc(-c2ccc(OCC)cc2)cc1`, 174 °C; to `C[Si](C)(C)C#Cc1cccc(C#C[Si](C)(C)C)c1`, 58 °C.

As to `CC(C)(C)c1nn(-c2ccccc2)c(N)c1Cn1nnc2ccccc21`, the melting point is 124 °C. To `O=C(NCCCCO)OCC1c2ccccc2-c2ccccc21` belongs 115 to 117 °C. Compound `FC(F)(F)c1ccc(Cl)cc1Cl` yielded a melting point of -26 °C. Regarding `O=C(O)COc1nc(Cl)c(Cl)cc1Cl`, the melting point is 150 °C.
